Reference: US11911376B2, “Methods for preventing and treating retinal damage” (THE REGENTS OF THE UNIVERSITY OF COLORADO, priority 2020, dated 2024)

Tests used:
[1] = tested on: retinal ganglion cells (RGCs); assay: Ischemia/reperfusion (I/R) injury model in mice, Brn3a-positive RGC loss in flat-mounted retinas; assay type: in vivo, WT (C57BL/6J) mice
Protocol: To evaluate the effects of kynurenic acid on retinal conditions characterized by RGC death, e.g., glaucoma, wild-type (WT) mice were subjected to ischemia/reperfusion (I/R) injury, which induced RGC death. I/R injury was performed by first anesthetizing 12-week-old WT (C57BL/6J) mice with an intraperitoneal injection of ketamine/xylazine confirmed by the toe-pinch test. The mice were then placed on a heating pad throughout the procedure to maintain their body temperature. The right eye of each animal was cannulated into the anterior chamber with a 33-gauge needle connected to an elevated saline reservoir. The height of the reservoir was adjusted to achieve an intraocular pressure of 120 mmHg. After 60 min of this procedure, the needle was removed.
(§1) Treatment mice were given kynurenic acid intravenously or intravitreally, while control mice were subjected to the same I/R injury but not given kynurenic acid. Intravenous and intravitreal administration of kynurenic acid was performed immediately after I/R injury and again 24 hours post-injury. Kynurenic acid was injected intravenously via the tail vein into WT mice at a concentration of 2.5 mg/animal (25 mg/mL stock dissolved in 0.1 N NaOH, diluted in 0.1 M sodium phosphate buffer, and adjusted to pH 7). After 2 hours, kynurenic acid levels in the serum and retina were measured. Control animals received 0.1 M sodium phosphate buffer (pH 7) alone.
Kynurenic acid was injected intravitreally into separate WT mice at a concentration of either 5 or 10 μg/animal (5 mg/mL stock of kynurenic acid was dissolved in 0.1 N NaOH and diluted in 0.1 M sodium phosphate buffer adjusted to pH 7). Control animals were intravitreally injected with buffer alone. Intravitreal injection was performed using a 33-gauge needle attached to a Hamilton syringe (Hamilton Bonaduz AG, Bonaduz, Switzerland). The eye lids were carefully parted, and the 33-gauge needle was inserted at a 45° angle into the vitreous, just behind the limbus. One or two microliters of solution was injected in 1 μL increments with a 30 second gap between each injection. After injection, the needle was slowly withdrawn, and the injected area was treated with a topical antibiotic. Mice were anesthetized with a cocktail containing ketamine and xylazine prior to the intravitreal injections.
All mice were euthanized and retinas dissected 14 days after I/R injury, flat-mounted and immunostained for Brn3a (brain-specific homeobox/POU domain protein 3A), which is a marker for RGCs.

[2] = Kynurenic acid levels in serum and retina by LC-MS/MS after intravenous injection (blood retinal barrier permeability); assay type: in vivo, WT mice; conditions: intravenous 2.5 mg/animal, two hours after injection, relative to sodium phosphate buffer-injected control mice, *p<0.05
Protocol: as §1
To first determine whether kynurenic acid is permeable across the blood retinal barrier, kynurenic acid levels in the serum and retina of six WT mice intravenously injected with kynurenic acid (KYNA) were measured by LC=MS/MS two hours after injection.

kynurenic acid levels in retina [2]: increased significantly
kynurenic acid levels in serum [2]: increased significantly
Compound: O=C(O)c1cc(=O)c2ccccc2[nH]1 [kynurenic acid]
level of RGC loss, central retina ([1]; intravenous 2.5 mg/animal immediately after I/R injury and again 24 hours post-injury, Brn3a-positive RGCs per mm2, 14 days after I/R, I/R control 36.3%): 11.2%
level of RGC loss, peripheral retina ([1]; intravenous 2.5 mg/animal immediately after I/R injury and again 24 hours post-injury, Brn3a-positive RGCs per mm2, 14 days after I/R, I/R control 50%): 29.4%
level of RGC loss, central retina ([1]; intravitreal 5 μg immediately after I/R and 24 hours post-injury, 14 days after I/R, I/R control 66.1%): 32.4%
level of RGC loss, peripheral retina ([1]; intravitreal 5 μg immediately after I/R and 24 hours post-injury, 14 days after I/R, I/R control 70.9%): 46.1%
level of RGC loss, central retina ([1]; intravitreal 10 μg immediately after I/R and 24 hours post-injury, 14 days after I/R, I/R control 66.1%): 18.5%
level of RGC loss, peripheral retina ([1]; intravitreal 10 μg immediately after I/R and 24 hours post-injury, 14 days after I/R, I/R control 70.9%): 26.8%
